Here are results for 5 substances from paper PMC6814738, “Bacterial MgrB peptide activates chemoreceptor Fpr3 in mouse accessory olfactory system and drives avoidance behaviour” (Nature Communications, 2019).

For assay [1], the system named is vomeronasal sensory neurons (VSNs). Put plainly: VNO whole-mount en face confocal Ca2+ imaging of VSN dendritic knobs (Fig. 4, 5). The assay is classed as cell-based, mouse. More on the design: key to Ca2+ response of f-MKKFRW-responsive VSN knobs / Fpeak: normalised to knob resting fluorescence F0 before stimulation. An excerpt: Mice (6–20 week old, either sex) were euthanized by CO2 inhalation according to institutional guidelines. After decapitation, the skin was removed from the skull, the mandible was cut off and the cranium was opened by a sagittal cut, 1–2-mm right-lateral in parallel to the midline. The palate and the right incisor were removed and the hemisected skull was mounted in low-melting agarose (4%). The bony capsule of the VNO was opened with fine forceps and the nonsensory epithelium was stripped off. Tissue and cell debris were gently washed off, and the en face preparation was superfused with physiological S1 solution (120 mM NaCl, 25 mM NaHCO3, 5 mM KCl, 1 mM MgSO4, 1 mM CaCl2, 10 mM glucose, 5 mM BES, pH 7.3) saturated with carbogen (95% O2, 5% CO2).
Loading of the VNE with Rhod-2/AM (5–15 µM, 1 h) was performed in S1 solution under carbogen atmosphere at RT. Images were taken with an upright confocal laser scanning microscope (Leica TCS SP5 II, 20x water immersion objective HCX APO L20x/1.0w) equipped with Ar and He/Ne lasers. GFP was excited at 488 nm, Venus at 514 nm and Rhod-2 at 543 nm. Emission was measured at 490–520 nm (GFP), 520–600 nm (Venus) and 560–680 nm (Rhod-2). To minimise interference between Venus and Rhod-2 fluorescence, images were taken sequentially (sample interval per image, 3–4 s). Peptide stimuli were applied to the VNE surface with a local perfusion system which, when positioned close to the anterior end of the VNO, produced a continuous solution stream from rostral to caudal along the VNO axis. Data analysis was performed with the open source software ImageJ (NIH). Ca^2+ responses of individual dendritic knobs were normalised to the knob resting fluorescence level obtained before stimulation (ratio Fx/F0, Fx = actual fluorescence; F0 = mean fluorescence of 3–5 images before ligand application). Mapping was performed by superimposing Ca^2+ peak images onto images showing intrinsic fluorescence for specific markers.
Predator urine mix was composed of urine from mountain lion, coyote, bobcat, fox and marten (at equal volume ratios), purchased from Predatorpee (USA) and Kieferle (Germany). The fMet peptides were as described above. Stimuli were applied in S2 solution (140 mM NaCl, 5 mM KCl, 10 mM HEPES, 1 mM CaCl2, 1 mM MgCl2, 10 mM glucose, pH 7.3 with NaOH).

In the next assay the test system is male mice. Put plainly: Behavioural avoidance test, FEU vs. FEU supplemented with peptide (Fig. 8, Supplementary Fig. 4). Format: in vivo, mouse. The conditions noted are these: for avoidance, in words: 100 µM, B6 mice (f-MKKFRW also ΔFpr3-lacZ+/+, cGαo+/−, Trpc2+/−); for avoidance index: 100 µM in FEU, mean ± s.e.m.; for Preference (%): group mean value, FEU vs FEU supplemented with 100 µM peptide. As to the method: These assays were adapted from behavioural procedures described previously[14],[60]. We tested avoidance by giving adult male mice (8–14 week old) of various genotypes a choice to freely investigate two types of chemical stimuli: FEU vs. FEU supplemented with a peptide. Mice were sexually naïve and not exposed to the test stimuli prior to the testing day. Mice were habituated for three days (40 min each day) to clean filter papers (2.5 cm diameter), each deposited in a sterile plastic culture dish and placed in opposite corners of the test cage (30 × 12 cm). After the third habituation period, the test subject was transferred into a new cage containing fresh filter papers/dishes with either of the two test stimuli. One filter paper was impregnated with 45 µl of fresh urine pooled from two sexually naïve female B6 mice (8–16 weeks old) in oestrus (FEU, female oestrous urine) and 5 µl physiological solution containing (in mM): NaCl, 130; KCl, 5; Na-Hepes, 10; CaCl2, 2; glucose, 10; pH = 7.4. For testing the effects of specific peptides, the second filter paper was impregnated with FEU supplemented with a given peptide (100 or 50 µM final concentration, dissolved in physiological solution). Direct physical contact was allowed. Behaviour was recorded for 10 min from the top of the cage. Mice were exposed only once to a given peptide solution, and were exposed to only one peptide stimulus per day. Stimuli were presented in randomised order. […] This investigative behaviour was quantified as the time spent in close contact with each filter paper, scored manually by an observer blind to the experimental conditions using Behavioural Observation Research Interactive Software (BORIS)[85]. Contact time was measured as the time during which the nose crossed the border of a petri dish containing impregnated filter paper. An avoidance index was calculated as (TP — aTU)/(aTP + aTU), with TP as the time an individual mouse investigated a FEU-peptide mixture, aTP as the average time of all tested mice investigating this stimulus and aTU as the average time of all mice investigating FEU without added peptide. Negative values represent avoidance and positive values represent attraction. For analysing investigation of sick conspecifics, B6 mice were injected either with LPS or PBS as described above. In total, 4 h post injection, these mice were anaesthetised with 165 mg/kg ketamine (Pharmacia GmbH, Berlin, Germany) and 11 mg/kg xylazine (Bayer Health Care, Leverkusen, Germany) and then used in behavioural tests.

For a further assay, the system named is mouse Fpr3. The conditions noted are these: cited from earlier work. As to the method:
We estimate the fraction of knobs responding to f-MKKFRW as ~0.15%, which is similar to the fraction of cells in the VNE that express Fpr3[30]. Strikingly, the sensitivity and sequence-selectivity profile of these responses was nearly identical to the results that we obtained for heterologously expressed Fpr3. The detection threshold of native VSNs for f-MKKFRW was ≤0.1 µM (Fig. 4f), virtually the same as for Fpr3-expres ... || Given the importance of the olfactory system in a variety of behavioural avoidance and defence mechanisms[14],[62],[63], we reasoned that in vivo detection of MgrB peptide may evoke an avoidance reaction in mice. We devised a behavioural assay[14],[60] in order to determine whether direct nasal contact with MgrB peptide evokes unconditioned, innate avoidance (Fig. 8a and Methods). […] (Fig ... || We used custom-made peptides with a length of 6–21 amino acids to screen for agonists. Sequences of fMet peptides were designed according to motifs present at the N-termini of 15,125 specific bacterial proteins as annotated in UniProt. Peptides were chemically synthesised, purified, and verified by mass spectroscopy (MALDI-TOF) by commercial suppliers. Purity of all peptides was >95%. Source, sequence and purity of each peptide are listed in Supplementary Data 1. Lyophilised peptides were routinely dissolved in the Ca^2+ imaging assay buffer C1 (130 mM NaCl, 10 mM HEPES, 5 mM KCl, 2 mM CaCl2, ...

Where [2] appears, read: B6, n = 10-11, negative = avoidance.

Several values for one entry are separate records, joined by “and”; a condition that tells them apart may be missing. Equal entries are not always repeated. Where two headings read alike, the source gives them in different places.

Consider MKKFRW [non-formylated MKKFRW peptide], for which the Fpeak in assay [1] (Fig. 4h, mean of individual knobs, n = 103 f-MKKFRW, 21 f-MKKFRWVVL, 68 MKKFRW, 26 f-MGFFIS, 63 PUM) came to 0.00. The “Ca2+ responses in VSNs, in words” value in assay [1] (VNE of adult B6 mice, f-MKKFRW 1 µM) is listed as “failed to evoke Ca^2+ responses in VSNs”. Further, in assay [1] (adult B6 mice, mean ± s.d., N = 103 (f-MKKFRW), 21 (f-MKKFRWVVL), 68 (MKKFRW), 26 (f-MGFFIS), 63 (PUM), Fig. 4h), the “Ca2+ response of f-MKKFRW-responsive VSN knobs” value was 0.00 ± 0.00. Moreover, in the assay on male mice, the “avoidance, in words” value is reported as “failed to elicit avoidance”. Further, the avoidance index with male mice (setting [2]) is given as 0.07 ± 0.05; in the assay with male mice (Trpc2 +/−), 0.02 ± 0.16; in the assay on male mice (Trpc2 −/−), 0.14 ± 0.17; in the assay with male mice (cGαo +/−), −0.12 ± 0.08; in the assay with male mice (cGαo −/−, n = 13), 0.21 ± 0.11; with male mice (∆Fpr3-lacZ +/+), 0.12 ± 0.11. In the assay on male mice (∆Fpr3-lacZ −/−, n = 12), this substance came in with an avoidance index of 0.20 ± 0.12. For the same substance, the “Preference Index” value with male mice (Fig. 8c, individual values, B6 mice) was -0.0604 and 0.2531 and -0.1298 and -0.1953 and 0.1497 and 0.2996 and 0.2407 and -0.00533 and -0.09796 and 0.2025 and 0.1402; with male mice (Fig. 8c, mean, B6 mice, n = 11 f-MKKFRW, 11 MKKFRW, 10 f-MGFFIS, 10 f-MEQQNK, FEU control -0.002), 0.07; in the assay with male mice (Fig. 8e, individual values, cGao +/-), -0.2952 and -0.1477 and 0.0923 and 0.1621 and -0.0653 and -0.08718 and -0.2984 and 0.512 and -0.2293 and -0.2843 and -0.4122 and -0.3523; with male mice (Fig. 8e, individual values, cGao -/-), -0.00407 and 0.301 and 0.1658 and 0.1525 and 0.9449 and 0.3984 and 0.4927 and 0.2412 and 0.4087 and 0.6592 and -0.3896 and -0.3365 and -0.3471; in the assay on male mice (Fig. 8e, mean, cGao +/-, n = 13 f-MKKFRW, 12 MKKFRW, FEU control -0.0358), -0.12; with male mice (Fig. 8e, mean, cGao -/-, n = 13, FEU control 0.15), 0.21. Besides, the “Preference Index” value in the assay with male mice (Fig. 8f, individual values, Trpc2 +/-) is 0.2866 and 0.03638 and -0.02867 and 0.9217 and 0.4878 and -0.4504 and -0.342 and -0.3772 and -0.3362; with male mice (Fig. 8f, individual values, Trpc2 -/-), 1.085 and 1.60E-05 and 0.07163 and 0.2257 and 0.5213 and -0.3383 and -0.4081 and -0.0323; in the assay on male mice (Fig. 8f, mean, Trpc2 +/-, n = 12 f-MKKFRW, 9 MKKFRW, FEU control -0.0531), 0.022; in the assay on male mice (Fig. 8f, mean, Trpc2 -/-, n = 11 f-MKKFRW, 8 MKKFRW, FEU control -0.10) it was 0.14; with male mice (Fig. 8d, individual values, ∆Fpr3-lacZ +/+) it was -0.2521 and -0.1287 and 0.07074 and 0.3269 and 0.2942 and 0.3844; in the assay on male mice (Fig. 8d, individual values, ∆Fpr3-lacZ -/-), -0.1393 and 0.3319 and 0.8558 and 1.088 and -0.03627 and 0.0259 and -0.07697 and -0.00886 and -0.09833 and -0.1976 and 0.3575 and 0.2784. Moreover, the “Preference Index” value is given as 0.12 in the assay with male mice (Fig. 8d, mean, ∆Fpr3-lacZ +/+, n = 9 f-MKKFRW, 6 MKKFRW, FEU control -0.06) and 0.20 with male mice (Fig. 8d, mean, ∆Fpr3-lacZ -/-, n = 12, FEU control 0.19). Further, the “Preference (%)” value in the assay with male mice (Fig. 8g, ∆Fpr3-lacZ +/+ males, FEU/FEU control -5.85844) is 7.718%; in the assay on male mice (Fig. 8g, ∆Fpr3-lacZ -/- males, FEU/FEU control 2.58474) it was 9.878%; in the assay on male mice (Fig. 8h, Trpc2 +/- males, FEU/FEU control 0.100694) it was 6.911%; with male mice (Fig. 8h, Trpc2 -/- males, FEU/FEU control -3.21189), -1.784%.
As to W-peptide [reference compound], the “agonism at mouse Fpr3, in words” value in the assay with mouse Fpr3 is on record as “agonists for mouse Fpr3”.
For f-MFQQNK [reference compound], the “avoidance, in words” value with male mice is given as “failed to elicit avoidance”. For the same substance, the avoidance index with male mice (setting [2]) was found to be 0.04 ± 0.09. For the same substance, in the assay on mouse Fpr3, the “activation of heterologously expressed Fpr3, in words” value is “failed to activate heterologously expressed Fpr3”.
Turning to “f-MLFYFS [signal peptide fragment identified as agonist for mouse Fpr3, reference compound]”, the “agonism at mouse Fpr3, in words” value with mouse Fpr3 (signal peptide fragments) was “agonists for mouse Fpr3”.
For the substance f-MLFYLA, the “agonism at mouse Fpr3, in words” value with mouse Fpr3 (signal peptide fragments) is given as “agonists for mouse Fpr3”.
